Measurements as given in patent US20230398220A1, “SIRNA-NANOBOWL-MEDIATED INTERVENTION OF COVID-19” (THE REGENTS OF THE UNIVERSITY OF CALIFORNIA, priority 2020, published 2023).

System: HEK 298 cell line
Test: MTT viability of HEK cells treated with nanobowls pre-loaded with siRNA and dexamethasone
Settings: normalized to untreated control

SMILES: C[C@@H]1C[C@H]2[C@@H]3CCC4=CC(=O)C=C[C@]4(C)[C@@]3(F)[C@@H](O)C[C@]2(C)[C@@]1(O)C(=O)CO [dexamethasone]
- cell viability (MTT): cell viability decreased
